Source: patent publication US10016430B2, “1-[2-(aminomethyl)benzyl]-2-thioxo-1,2,3,5-tetrahydro-4H-pyrrolo[3,2-d]pyrimidin-4-ones as inhibitors of myeloperoxidase” (AstraZeneca AB, priority 2014, dated 2018)

Molecular target: activated MPO (Homo sapiens (Human), UniProt P05164)
Assay: Urate production by activated MPO incubated with xanthine, LC-MS
Assay type: biochemical
Settings: activated MPO incubated with xanthine and titrated compound for 80 min, FIG. 3
Text: The dotted line represents the urate formed in the presence of unactivated MPO.
We postulate that tissue hypoxia, the degree of which will be determined by the degree of inflammation and vascular function, has impact on plasma urate concentration. Myocardial ischemia results in accelerated loss of ATP and a corresponding buildup of urate levels in rat hearts (Am. J. Physiol. Heart Circ. Physiol., 2004, 286, H677-H684; J. Biol. Chem., 1995, 270, 18797-18803). Furthermore, increased myocardial production of urate contributes to systemic urate levels and correlates to NYHA class in heart failure patients (Circ. J., 2006, 70, 1006-1011).

activated MPO, sequence (P05164 49-745): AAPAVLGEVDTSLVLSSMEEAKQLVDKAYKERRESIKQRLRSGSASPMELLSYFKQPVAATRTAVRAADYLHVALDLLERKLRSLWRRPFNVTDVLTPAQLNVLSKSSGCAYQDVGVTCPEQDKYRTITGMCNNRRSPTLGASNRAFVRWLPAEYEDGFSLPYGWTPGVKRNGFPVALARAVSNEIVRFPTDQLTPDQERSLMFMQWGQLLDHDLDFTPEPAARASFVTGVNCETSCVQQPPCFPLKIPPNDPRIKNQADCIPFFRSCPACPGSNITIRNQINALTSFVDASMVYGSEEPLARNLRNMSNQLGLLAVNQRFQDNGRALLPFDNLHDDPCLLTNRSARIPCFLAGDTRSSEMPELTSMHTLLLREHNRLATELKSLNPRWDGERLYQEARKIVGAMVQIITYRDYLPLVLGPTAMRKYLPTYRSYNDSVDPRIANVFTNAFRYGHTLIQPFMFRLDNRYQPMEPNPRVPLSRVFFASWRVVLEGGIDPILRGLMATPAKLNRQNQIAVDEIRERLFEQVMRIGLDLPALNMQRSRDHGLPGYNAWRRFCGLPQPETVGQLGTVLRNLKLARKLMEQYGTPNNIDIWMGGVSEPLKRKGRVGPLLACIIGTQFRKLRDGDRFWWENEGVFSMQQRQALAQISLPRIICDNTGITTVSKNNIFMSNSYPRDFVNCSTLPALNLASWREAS

- Inhibition of urate production by activated MPO: concentration-dependently inhibited
Compound: C[C@@H](N)c1cc(Cl)ccc1Cn1c(=S)[nH]c(=O)c2[nH]ccc21 [Example 3, 1-{2-[(1R)-1-Aminoethyl]-4-chlorobenzyl}-2-thioxo-1,2,3,5-tetrahydro-4H-pyrrolo[3,2-d]pyrimidin-4-one]
